Values quoted from earlier work as cited in US8097267B2, “Moisture resistant container systems for rapidly bioavailable dosage forms” (APR Applied Pharma Research s.a., priority 2006, dated 2012).

Details: acidic environment

## [(2,6-dichloro-anilino)-2-phenyl]-2-acetic acid [diclofenac potassium]
  precipitation: tendency to precipitate in an acidic environment
